According to patent US7527808B2, “Amorphous cefditoren pivoxil composition and process for producing the same” (Meiji Seika Kaisha, Ltd., priority 2001, dated 2009):

Assays:
[1] = Test 2: thermal analysis, stability against heat by differential scanning calorimeter; assay type: physicochemical; conditions: temperature rise rate 10° C./min
From the text: The samples shown in Table 2 were examined for stability against heat with a differential scanning calorimeter (model DSC 3100, manufactured by MAC Science).

[2] = Test 4: dissolution test (Japanese Pharmacopoeia Method 2) in second fluid; assay type: physicochemical; conditions: second fluid of the Japanese Pharmacopoeia; dissolved cefditoren pivoxil determined at 272 nm
Procedure: For each sample shown in Table 2, a dissolution test (see The Japanese Pharmacopoeia, Fourteenth Edition, Part I, General Tests “56. Dissolution test, Method 2”) was carried out in a second fluid specified in the Japanese Pharmacopoeia (a fluid prepared by adding 118 mL of a 0.2 mol/L sodium hydroxide reagent solution and water to 250 mL of a 0.2 mol/L potassium dihydogenphosphate reagent solution; the amount of the water being a sufficient amount to bring the total volume of the fluid to 1,000 mL). The fluid with the sample dissolved therein was sampled at fixed intervals of time and was filtered through a glass filter G-4 manufactured by TOYAMA SANGYO Co., Ltd., and the amount of dissolved cefditoren pivoxil was then quantitatively determined at a measuring wavelength of 272 nm with a spectrophotometer (UV-160, manufactured by Shimadzu Seisakusho Ltd.

Row | Structure (SMILES) | exothermic peak in DSC curve (transfer to a crystalline state) [1] | dissolvability (dissolution curve of cefditoren pivoxil) [2]
1 | CO/N=C(\C(=O)N[C@@H]1C(=O)N2C(C(=O)OCOC(=O)C(C)(C)C)=C(/C=C\c3scnc3C)CS[C@H]12)c1csc(N)n1 [amorphous cefditoren pivoxil, (−)-(6R,7R)-7-[(Z)-2-(2-aminothiazol-4-yl)-2-methoxyiminoacetamido]-3-[(Z)-2-(4-methylthiazol-5-yl)ethenyl]-8-oxo-5-thia-1-azabicyclo[4.2.0]oct-2-ene-2-carboxylic acid 2,2-dimethylpropionyloxymethyl ester] | around 140 °C | 
2 | CO/N=C(\C(=O)N[C@@H]1C(=O)N2C(C(=O)OCOC(=O)C(C)(C)C)=C(/C=C\c3scnc3C)CS[C@H]12)c1csc(N)n1 [crystalline cefditoren pivoxil, (−)-(6R,7R)-7-[(Z)-2-(2-aminothiazol-4-yl)-2-methoxyiminoacetamido]-3-[(Z)-2-(4-methylthiazol-5-yl)ethenyl]-8-oxo-5-thia-1-azabicyclo[4.2.0]oct-2-ene-2-carboxylic acid 2,2-dimethylpropionyloxymethyl ester] |  | substantially no difference in dissolvability
